In patent US20200317784A1, “METHODS AND COMPOSITIONS FOR TREATING CANCER BY MODIFYING MULTIPLE ARMS OF THE IMMUNE SYSTEM” (BioXcel Therapeutics, Inc., priority 2017, published 2020):

Columns and labels:
Pan02 tumor cells = assay: Anti-tumor efficacy in Pan02 syngeneic mouse model of pancreatic carcinoma; format: in vivo; conditions: Pan02 s.c., C57BL/6 mice
Description: Six to eight-week-old female C57BL/6 mice were used in the studies as supplied by Beijing Vital River Laboratory Animal Technology Co., Ltd. Mice received food and water ad libitum. The study protocol and the procedures involving the care and use of animals were reviewed and approved by the Institutional Animal Care and Use Committee (IACUC) to ensure compliance with the regulations of the Association for Assessment and Accreditation of Laboratory Animal Care (AAALAC).
Stock solutions of the PD-1 antagonist at 1 mg/ml concentrations were prepared and kept at 4° C. prior to use. Dosing solutions of the PD-1 antagonist were prepared freshly at a concentration of 1 mg/ml before every administration in sterile phosphate buffered saline (PBS), adjusted to pH 7.0, and administered at a dose of 10 mg/kg intraperitoneally (i.p) per 20 g mouse. […] Talabostat mesylate was obtained from a commercial source, and prepared freshly at a working concentration of 0.1 mg/ml before every administration in sterile phosphate buffered saline (pH 7.0), maintained at 4° C., and administered perorally (p.o.) at a total dose of 20 μg per 20 g mouse.
The tumor cells were routinely sub-cultured twice per week bytrypsin-EDTA treatment. The cells in anexponential growth phase were harvested and counted for tumor inoculation. […] The date of tumor cell inoculation was denoted as Day 0.
The dosing of the agents was started on day 5 after tumor inoculation and continued until Day 28 after tumor inoculation.
Body weight (in grams), and tumor volumes (in mm^3) were measured on Days 5, 8, 12, 15, 19, 22, 26 and 29. […] Tumor volume, expressed in mm^3, was measured with a calliper.
Data related to tumor volume are presented as mean and the standard error of the mean (SEM). Statistical analyses were conducted using Student's t-test. P<0.05 and P<0.001 were considered statistically significant.
% Tumor reduction=(Mean tumor volume^vehicle control−Mean tumor volume^treatmet_group)/Mean tumor volume^vehicle control×100Table 1B. Results

[1] = test system: Ly6G+ cells (tumoricidal neutrophils); assay: IHC of neutrophil infiltrate in Pan02 tumor samples; conditions: Day 8; compared to vehicle and PD-1 antagonist alone
Description: Tumor samples from the study groups were analyzed for infiltration of immune cells. […] The data was analyzed using GraphPad Prism 5. p<0.05 was statistically significant (*, p<0.05; **, p<0.01; ***, p<0.001).

melanoma = melanoma patients; Postow et al. 2015; cited from earlier work

| Molecule | % Tumor Reduction compared to vehicle control (Pan02 tumor cells; Day 19 after tumor inoculation) [%] | % Tumor Reduction compared to vehicle control (Pan02 tumor cells; Day 22 after tumor inoculation) [%] | % Tumor Reduction compared to vehicle control (Pan02 tumor cells; Day 26 after tumor inoculation) [%] | % Tumor Reduction compared to vehicle control (Pan02 tumor cells; Day 29 after tumor inoculation) [%] | Ly6G+ cells in tumor (IHC) [1] | response rate (melanoma) [%] |
| --- | --- | --- | --- | --- | --- | --- |
| CC(C)[C@H](N)C(=O)N1CCC[C@H]1B(O)O.CS(=O)(=O)O [Talabostat mesylate, [(2R)-1-[(2S)-2-amino-3-methylbutanoyl]pyrrolidin-2-yl]boronic acid; methanesulfonic acid] | 61.23 | 58.18 | 65.42 | 65.61 | significant increase | – |
| ipilimumab: human monoclonal anti-CTLA-4 antibody | – | – | – | – | – | 11 |
| nivolumab | – | – | – | – | – | 32 |
